Where two headings read alike, the source gives them in different places.
Tests used:
[1] = target: T1, MAGL (Mus musculus, UniProt O35678); test: biochemical
T1 sequence (O35678 1-303): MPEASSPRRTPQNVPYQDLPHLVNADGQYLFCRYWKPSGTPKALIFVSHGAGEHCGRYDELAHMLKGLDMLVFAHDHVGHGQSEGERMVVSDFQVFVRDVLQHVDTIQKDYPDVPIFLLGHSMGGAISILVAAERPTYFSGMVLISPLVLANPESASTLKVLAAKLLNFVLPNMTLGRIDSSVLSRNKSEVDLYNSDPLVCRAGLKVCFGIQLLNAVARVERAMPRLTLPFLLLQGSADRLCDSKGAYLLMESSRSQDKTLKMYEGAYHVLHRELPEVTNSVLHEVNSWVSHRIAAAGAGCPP

[2] = target: T2, FAAH (Mus musculus, UniProt O08914); test: biochemical; details: in vitro competitive ABPP
T2 sequence (O08914 1-579): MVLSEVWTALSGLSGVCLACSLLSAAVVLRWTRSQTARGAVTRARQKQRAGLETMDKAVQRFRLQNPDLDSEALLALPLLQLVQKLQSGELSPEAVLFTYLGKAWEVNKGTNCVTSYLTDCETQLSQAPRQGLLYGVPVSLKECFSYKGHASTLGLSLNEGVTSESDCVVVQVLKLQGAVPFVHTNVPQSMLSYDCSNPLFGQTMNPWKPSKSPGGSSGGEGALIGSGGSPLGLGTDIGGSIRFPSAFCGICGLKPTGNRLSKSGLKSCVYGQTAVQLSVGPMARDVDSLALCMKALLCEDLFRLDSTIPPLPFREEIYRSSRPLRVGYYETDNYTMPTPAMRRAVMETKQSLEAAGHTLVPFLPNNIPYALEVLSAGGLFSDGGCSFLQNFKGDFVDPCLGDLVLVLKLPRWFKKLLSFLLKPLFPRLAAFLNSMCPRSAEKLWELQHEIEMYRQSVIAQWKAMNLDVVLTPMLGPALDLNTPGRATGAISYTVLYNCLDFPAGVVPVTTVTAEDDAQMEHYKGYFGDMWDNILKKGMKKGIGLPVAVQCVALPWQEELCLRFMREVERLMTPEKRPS

[3] = target: T2, FAAH; test: In vitro competitive activity-based protein profiling (Table 2, % inhibition at 1 μM); type: biochemical; details: read-out: % Inhibition at 1 μM FAAH
[4] = target: T3, ABHD6 (Mus musculus, UniProt Q8R2Y0); test: as above; type: biochemical; details: read-out: % Inhibition at 1 μM ABHD6
T3 sequence (Q8R2Y0 1-336): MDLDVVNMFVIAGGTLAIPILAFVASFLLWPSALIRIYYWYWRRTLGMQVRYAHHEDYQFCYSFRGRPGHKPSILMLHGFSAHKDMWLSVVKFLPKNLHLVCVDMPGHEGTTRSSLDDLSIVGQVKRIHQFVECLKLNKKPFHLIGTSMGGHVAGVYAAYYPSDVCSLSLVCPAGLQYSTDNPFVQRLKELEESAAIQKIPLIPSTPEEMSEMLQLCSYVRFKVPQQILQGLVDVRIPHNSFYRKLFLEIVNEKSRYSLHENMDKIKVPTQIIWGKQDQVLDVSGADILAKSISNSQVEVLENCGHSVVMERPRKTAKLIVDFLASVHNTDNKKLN

[5] = target: T3, ABHD6; test: biochemical; details: in vitro competitive ABPP
[6] = target: T1, MAGL; test: In vitro competitive activity-based protein profiling (Table 2, % inhibition at 1 μM); type: biochemical; details: read-out: % Inhibition at 1 μM MAGL
Method: After 30 min, FP—Rh (1.0 μL, 50 μM in DMSO) was added and the mixture was incubated for another 30 min at 37° C. Reactions were quenched with SDS loading buffer (50 μL-4×) and run on SDS-PAGE.
Cell lysates were diluted with mock proteomes for use in competitive ABPP experiments.

[7] = mouse, in vitro competitive ABPP, read-out: Mouse (IC50 value, nM) MAGL

O=C(OC(C(F)(F)F)C(F)(F)F)N1CC2CN(Cc3ccc(Cl)cc3N3CCN4CCC[C@@H]4C3)CC2C1 (stereo partly drawn) [Example 35, 1,1,1,3,3,3-Hexafluoropropan-2-yl 5-(4-chloro-2-((R)-hexahydropyrrolo[1,2-a]pyrazin-2(1H)-yl)benzyl)-hexahydropyrrolo[3,4-c]pyrrole-2(1H)-carboxylate]
IC50 [1, 7]: 100 to 1000 nM
IC50 [2]: > 10000 nM
inhibition at 1 µM [3]: < 25%
inhibition at 1 µM [4]: < 25%
IC50 [5]: 1000 to 10000 nM
inhibition at 1 µM [6]: > 75%

O=C(OC(C(F)(F)F)C(F)(F)F)N1CC2CN(Cc3cc(CN4CCOCC4)cc(OC(F)(F)F)c3)CC2C1 (stereo not drawn) [Example 183, 1,1,1,3,3,3-hexafluoropropan-2-yl 5-(3-(morpholinomethyl)-5-(trifluoromethoxy)benzyl)hexahydropyrrolo[3,4-c]pyrrole-2(1H)-carboxylate]
IC50 [1, 7]: 100 to 1000 nM
IC50 [2]: 1000 to 10000 nM
inhibition at 1 µM [3]: < 25%
inhibition at 1 µM [4]: < 25%
IC50 [5]: 1000 to 10000 nM
inhibition at 1 µM [6]: > 75%

O=C(ON1C(=O)CCC1=O)N1CC2CN(Cc3ccc(Cl)cc3N3CC4CCC(C3)O4)CC2C1 (stereo not drawn) [Example 81, 2,5-Dioxopyrrolidin-1-yl 5-(2-(8-oxa-3-azabicyclo[3.2.1]octan-3-yl)-4-chlorobenzyl)hexahydropyrrolo[3,4-c]pyrrole-2(1H)-carboxylate]
IC50 [1]: 100 to 1000 nM
IC50 [2]: 1000 to 10000 nM
inhibition at 1 µM [3]: < 25%
inhibition at 1 µM [4]: 25 to 75%
IC50 [5]: 1000 to 10000 nM
inhibition at 1 µM [6]: 25 to 75%

CC(C)(C)c1cc(CN2CC3CN(C(=O)OC(C(F)(F)F)C(F)(F)F)CC3C2)n(C2CCOCC2)n1 (stereo not drawn) [Example 157, 1,1,1,3,3,3-hexafluoropropan-2-yl 5-[[3-tert-butyl-1-(oxan-4-yl)-1H-pyrazol-5-yl]methyl]-octahydropyrrolo[3,4-c]pyrrole-2-carboxylate]
IC50 [1, 7]: 100 to 1000 nM
IC50 [2]: > 10000 nM
inhibition at 1 µM [3]: < 25%
inhibition at 1 µM [4]: < 25%
IC50 [5]: 1000 to 10000 nM
inhibition at 1 µM [6]: > 75%

O=C(OC(C(F)(F)F)C(F)(F)F)N1CC2CN(Cc3ccc(Cl)cc3N3CCn4ccnc4C3)CC2C1 (stereo not drawn) [Example 33, 1,1,1,3,3,3-Hexafluoropropan-2-yl 5-[(4-chloro-2-[5H,6H,7H,8H-imidazo[1,2-a]pyrazin-7-yl]phenyl)methyl]-octahydropyrrolo[3,4-c]pyrrole-2-carboxylate]
IC50 [1, 7]: < 100 nM
IC50 [2]: 1000 to 10000 nM
inhibition at 1 µM [3]: 25 to 75%
inhibition at 1 µM [4]: 25 to 75%
IC50 [5]: 1000 to 10000 nM
inhibition at 1 µM [6]: > 75%

Cc1cccc(-c2cc(CN3CC4CN(C(=O)OC(C(F)(F)F)C(F)(F)F)CC4C3)n(C)n2)c1 (stereo not drawn) [Example 196, 1,1,1,3,3,3-hexafluoropropan-2-yl 5-((1-methyl-3-(m-tolyl)-1H-pyrazol-5-yl)methyl)hexahydropyrrolo[3,4-c]pyrrole-2(1H)-carboxylate]
IC50 [1, 7]: < 100 nM
IC50 [2]: 1000 to 10000 nM
inhibition at 1 µM [3]: < 25%
inhibition at 1 µM [4]: < 25%
IC50 [5]: 1000 to 10000 nM
inhibition at 1 µM [6]: > 75%

CC(C)c1ccc(CN2CC3CN(C(=O)OC(C(F)(F)F)C(F)(F)F)CC3C2)c(N2CCOCC2)c1 (stereo not drawn) [Example 22, 1,1,1,3,3,3-Hexafluoropropan-2-yl 5-[[2-(morpholin-4-yl)-4-(propan-2-yl)phenyl]methyl]-octahydropyrrolo[3,4-c]pyrrole-2-carboxylate]
IC50 [1, 7]: 100 to 1000 nM
IC50 [2]: 1000 to 10000 nM
inhibition at 1 µM [3]: < 25%
inhibition at 1 µM [4]: < 25%
IC50 [5]: 1000 to 10000 nM
inhibition at 1 µM [6]: > 75%

CC(=O)N1CCC(c2nn(C(C)C)cc2CN2CC3CN(C(=O)OC(C(F)(F)F)C(F)(F)F)CC3C2)CC1 (stereo not drawn) [Example 55, 1,1,1,3,3,3-Hexafluoropropan-2-yl 5-[[3-(1-acetylpiperidin-4-yl)-1-(propan-2-yl)-1H-pyrazol-4-yl]methyl]-octahydropyrrolo[3,4-c]pyrrole-2-carboxylate]
IC50 [1, 7]: 100 to 1000 nM
IC50 [2]: > 10000 nM
inhibition at 1 µM [3]: < 25%
inhibition at 1 µM [4]: < 25%
IC50 [5]: 1000 to 10000 nM
inhibition at 1 µM [6]: > 75%

O=C(OC(C(F)(F)F)C(F)(F)F)N1CC2CN(Cc3cccc(N4CCOCC4)c3Cl)CC2C1 (stereo not drawn) [Example 49, 1,1,1,3,3,3-Hexafluoropropan-2-yl 5-[[2-chloro-3-(morpholin-4-yl)phenyl]methyl]-octahydropyrrolo[3,4-c]pyrrole-2-carboxylate]
IC50 [1, 7]: < 100 nM
IC50 [2]: 1000 to 10000 nM
inhibition at 1 µM [3]: 25 to 75%
inhibition at 1 µM [4]: < 25%
IC50 [5]: 1000 to 10000 nM
inhibition at 1 µM [6]: > 75%

CC(=O)N1CCN(c2ccc(CN3CC4CN(C(=O)OC(C(F)(F)F)C(F)(F)F)CC4C3)c(Cl)c2)CC1 (stereo not drawn) [Example 28, 1,1,1,3,3,3-Hexafluoropropan-2-yl 5-[[4-(4-acetylpiperazin-1-yl)-2-chlorophenyl]methyl]-octahydropyrrolo[3,4-c]pyrrole-2-carboxylate]
IC50 [1, 7]: < 100 nM
IC50 [2]: 100 to 1000 nM
inhibition at 1 µM [3]: 25 to 75%
inhibition at 1 µM [4]: < 25%
IC50 [5]: 1000 to 10000 nM
inhibition at 1 µM [6]: > 75%

O=C(OC(C(F)(F)F)C(F)(F)F)N1CC2CN(Cc3cccc(Cl)c3N3C4CCC3COC4)CC2C1 (stereo not drawn) [Example 43, 1,1,1,3,3,3-Hexafluoropropan-2-yl 5-[(3-chloro-2-[3-oxa-8-azabicyclo[3.2.1]octan-8-yl]phenyl)methyl]-octahydropyrrolo[3,4-c]pyrrole-2-carboxylate]
IC50 [1, 7]: < 100 nM
IC50 [2]: 1000 to 10000 nM
inhibition at 1 µM [3]: < 25%
inhibition at 1 µM [4]: < 25%
IC50 [5]: 1000 to 10000 nM
inhibition at 1 µM [6]: > 75%

Cc1c(CN2CC3CN(C(=O)OC(C(F)(F)F)C(F)(F)F)CC3C2)cccc1N1CCC(F)(F)CC1 (stereo not drawn) [Example 153, 1,1,1,3,3,3-hexafluoropropan-2-yl 5-[[3-(4,4-difluoropiperidin-1-yl)-2-methylphenyl]methyl]-octahydropyrrolo[3,4-c]pyrrole-2-carboxylate]
IC50 [1, 7]: < 100 nM
IC50 [2]: 1000 to 10000 nM
inhibition at 1 µM [3]: 25 to 75%
inhibition at 1 µM [4]: < 25%
IC50 [5]: > 10000 nM
inhibition at 1 µM [6]: > 75%

Cc1c(CN2CC3CN(C(=O)OC(C(F)(F)F)C(F)(F)F)CC3C2)cccc1C(=O)N1CCCC1 (stereo not drawn) [Example 186, 1,1,1,3,3,3-hexafluoropropan-2-yl 5-(2-methyl-3-(pyrrolidine-1-carbonyl)benzyl)hexahydropyrrolo[3,4-c]pyrrole-2(1H)-carboxylate]
IC50 [1, 7]: < 100 nM
IC50 [2]: 1000 to 10000 nM
inhibition at 1 µM [3]: < 25%
inhibition at 1 µM [4]: 25 to 75%
IC50 [5]: 1000 to 10000 nM
inhibition at 1 µM [6]: > 75%

CC1COCCN1c1ccc(CN2CC3CN(C(=O)ON4C(=O)CCC4=O)CC3C2)c(Cl)c1 (stereo not drawn) [Example 102, 2,5-Dioxopyrrolidin-1-yl 5-[[2-chloro-4-(3-methylmorpholin-4-yl)phenyl]methyl]-octahydropyrrolo[3,4-c]pyrrole-2-carboxylate]
IC50 [1, 7]: 100 to 1000 nM
IC50 [2]: 1000 to 10000 nM
inhibition at 1 µM [3]: 25 to 75%
inhibition at 1 µM [4]: < 25%
IC50 [5]: 1000 to 10000 nM
inhibition at 1 µM [6]: 25 to 75%

O=C(OC(C(F)(F)F)C(F)(F)F)N1CC2CN(Cc3cc(CN4CCCCC4)ccc3OC(F)(F)F)CC2C1 (stereo not drawn) [Example 189, 1,1,1,3,3,3-hexafluoropropan-2-yl 5-(5-(piperidin-1-ylmethyl)-2-(trifluoromethoxy)benzyl)hexahydropyrrolo[3,4-c]pyrrole-2(1H)-carboxylate]
IC50 [1, 7]: 100 to 1000 nM
IC50 [2]: 1000 to 10000 nM
inhibition at 1 µM [3]: < 25%
inhibition at 1 µM [4]: < 25%
IC50 [5]: 1000 to 10000 nM
inhibition at 1 µM [6]: > 75%

Source: patent US9828379B2 (priority 2013, dated 2017)
